Test results from patent EP1484329A1, “Indole derivatives with apoptosis inducing activity” (Zentaris GmbH, priority 2003, dated 2004).
Values after ≈ are worked out from the molar mass of the structure shown. Where two headings read alike, the source gives them in different places.

Tests used:
L1210VCR = experiment: XTT proliferation assay, L1210VCR (resistant); format: cell-based, murine
Description: (§1) Die Substanzen 1,2, 4-6 wurden in einem Proliferationstest an etablierten Tumorzelllinien auf ihre anti-proliferative Aktivität hin untersucht (D.A. Scuderio et al. Cancer Res. 1988, 48, 4827-4833). Der verwendete Test bestimmt die zelluläre Dehydrogenase-Aktivität und ermöglicht eine Bestimmung der Zellvitalität und indirekt der Zellzahl. Bei den verwendeten Zelllinien handelt es sich um die humane Cervixkarzinom Zelllinie KB/HeLa (ATCC CCL17), die ovariale Adenokarzinomzelllinie SKOV-3 (ATCC HTB77), die humane Glioblastom Zelllinie SF-268 (NCI 503138) und die Lungenkarzinom Zelllinie NCI-H460 (NCI 503473). Des weiteren wurde zur Untersuchung der Zellzyklus-spezifischen Wirkung der Substanz ein RKOp27 Zellsystem verwendet (M. Schmidt et al. Oncogene19(20):2423-9, 2000). Bei RKO handelt es sich um eine humane Kolonkarzinomlinie, in der der Zellzyklusinhibitor p27 ^kip1 mittels des Ecdyson Expressionssystems induziert zur Expression gebracht und zu einem Zellzyklusarrest spezifisch in G2 geführt werden kann. Eine unspezifisch wirkende Substanz hemmt die Proliferation unabhängig davon, ob die RKO Zelle in G1 oder G2 arretiert ist oder nicht. Zellzyklus-spezifische Substanzen wie beispielsweise Tubulininhibitoren sind hingegen nur dann zytotoxisch, wenn Zellen nicht arretiert sind und der Zellzyklus durchlaufen wird. In Tabelle 1 ist die zytotoxische bzw. wachstumshemmende Aktivität der beschriebenen Verbindungen mit / ohne Expression von p27^kip1gezeigt. Die getesteten Verbindungen zeigten im induzierten Zustand von p27^kiP1 keine zytotoxische Aktivität. Die Ergebnisse zeigen eine sehr potente Hemmung der Proliferation ausgewählter Tumorzelllinien durch die genannten Substanzen. Tabelle 1:
(§2) Zur weiteren Charakterisierung wurden die Substanzen 1,2,4-6 gegenüber multi drug resistenten Zelllinien im Vergleich zu den nicht-resistenten Wildtypzelllinien untersucht.
(§3) Bei den untersuchten Zelllinien handelt es sich um die murine L1210, die akute myeloische Leukaemie Zelllinie LT12 und um die resistenten Linien L1210/mdr und LT12/mdr. Außerdem wurden die murine P388 Zelllinie (methyl-cholanthreneinduced lymphoid neoplasm) sowie die Doxorubicin-resistente P388 als Testsysteme herangezogen.

SF-268 = experiment: XTT proliferation assay, SF-268; format: cell-based; conditions: Homo sapiens, read-out: XTT Proliferationsassay, EC50 SF-268
Description: as §1, with “Substanzen.” for “Substanzen. Tabelle 1:”

P388 = experiment: XTT proliferation assay, P388 (wild type); format: cell-based, murine
Description: as §1, §2, §3

SKOV-3 = experiment: XTT proliferation assay, SKOV-3; format: cell-based; conditions: Homo sapiens, SK-OV-3; read-out: XTT Proliferationsassay, EC50 SKOV3
Description: as §1, with “Substanzen.” for “Substanzen. Tabelle 1:”

KB/HeLa = experiment: XTT proliferation assay, KB/HeLa; format: cell-based; conditions: Homo sapiens, read-out: XTT Proliferationsassay, EC50 KB/Hela
Description: as §1, with “Substanzen.” for “Substanzen. Tabelle 1:”

L1210 = experiment: XTT proliferation assay, L1210 (wild type); format: cell-based, murine
Description: as §1, §2, §3

U-937 Zelllinie = experiment: CDDplus nucleosome ELISA (apoptosis detection); format: cell-based; conditions: U-937, 0.1-1000nM, 4-24h
Protocol: Zum Nachweis der Nucleosomen Partikel wurde der von der Firma Roche Molecular Biochemicals beschriebene CDD^plus Nucleosomen ELISA Test eingesetzt. Hierzu untersuchte man die Verbindung 2 an der U-937 Zelllinie bei unterschiedlichen Konzentrationen (0.1-1000nM) und bei unterschiedlicher zeitlicher Behandlung (4-24h) (s. Graph 7). [formula]

[1] = tested on: Salmonella thyphimurium TA98; format: cell-based; conditions: for AMES TA98 mit S9: with rat liver S9; for AMES TA98 ohne S9: without S9
Protocol: (§4) Die Verbindung 2 wurde in einem Fluktuationsassay gegenüber den Mutanten-Stämmen TA98 und TA100 des Bakteriums Salmonella thyphimurium bei drei Konzentrationen (2.5; 5 und 10µM) auf Mutagenität hin untersucht. Die Mutagenitätsuntersuchungen wurden ferner in Gegenwart des Rattenleberenzyms S9 durchgeführt.

[2] = tested on: Salmonella thyphimurium TA100; format: cell-based; conditions: for AMESTA100 mit S9: with rat liver S9; for AMESTA100 ohne S9: without S9
Protocol: as §4

Q: Which results are given for O=C(Nc1cnc2nccnc2c1)C(=O)c1cn(Cc2ccc(Cl)cc2)c2ccccc12 [Verbindung 5, 2-[1-(4-Chlor-benzyl)-1H-indol-3-yl]-2-oxo-N-pyrido[2,3-b]pyrazin-7-yl-acetamid]?
A: EC50 (L1210VCR; Mus musculus; read-out: XTT Proliferationsassay, EC50 L1210VCR): 0.021 µg/mL (≈ 0.0475 µM); EC50 (SF-268): 0.042 µg/mL (≈ 0.095 µM); EC50 (P388; Mus musculus, P388; read-out: XTT Proliferationsassay, EC50 P388): 0.012 µg/mL (≈ 0.0272 µM); EC50 (SKOV-3): 0.029 µg/mL (≈ 0.0656 µM); EC50 (KB/HeLa): 0.045 µg/mL (≈ 0.102 µM); EC50 (L1210; Mus musculus, L1210; read-out: XTT Proliferationsassay, EC50 L1210): 0.018 µg/mL (≈ 0.0407 µM)

Q: With O=C(Nc1ccc2ncccc2c1)C(=O)c1cn(Cc2ccc(Cl)cc2)c2ccccc12 [Verbindung 2, 2-[1-(4-Chlor-benzyl)-1 H-indol-3-yl]-2-oxo-N-chinolin-6-yl-acetamid] as the compound, how does the EC50 (L1210VCR; Mus musculus, read-out: XTT Proliferationsassay, EC50 L1210VCR) read?
A: 0.078 µg/mL (≈ 0.177 µM)

Q: What about the “Nucleosomen im Zelllysat” value (U-937 Zelllinie; cell lysate) of the same compound?
A: konzentrations- und zeitabhängiger Anstieg von Nucleosomen im Zelllysat

Q: What about the “Nucleosomen im Zellkulturüberstand” value (U-937 Zelllinie; culture supernatant) of the same compound?
A: kein signifikanter Anstieg

Q: And the EC50 (SF-268)?
A: 0.027 µg/mL (≈ 0.0614 µM)

Q: What about the EC50 (P388; Mus musculus, P388, read-out: XTT Proliferationsassay, EC50 P388) of the same compound?
A: 0.037 µg/mL (≈ 0.0841 µM)

Q: What about the EC50 (SKOV-3) of the same compound?
A: 0.018 µg/mL (≈ 0.0409 µM)

Q: What about the EC50 (KB/HeLa) of the same compound?
A: 0.027 µg/mL (≈ 0.0614 µM)

Q: And the EC50 (L1210; Mus musculus, L1210, read-out: XTT Proliferationsassay, EC50 L1210)?
A: 0.074 µg/mL (≈ 0.168 µM)

Q: And the “AMES TA98 mit S9” value ([1]; 2.5 µM)?
A: inaktiv

Q: And the “AMES TA98 ohne S9” value ([1]; 2.5 µM)?
A: inaktiv

Q: And the “AMES TA98 mit S9” value ([1]; 5 µM)?
A: inaktiv

Q: And the “AMES TA98 ohne S9” value ([1]; 5 µM)?
A: inaktiv

Q: And the “AMES TA98 mit S9” value ([1]; 10 µM)?
A: inaktiv

Q: What about the “AMES TA98 ohne S9” value ([1]; 10 µM) of the same compound?
A: inaktiv

Q: And the “AMESTA100 mit S9” value ([2]; 2.5 µM)?
A: inaktiv

Q: And the “AMESTA100 ohne S9” value ([2]; 2.5 µM)?
A: inaktiv

Q: And the “AMESTA100 mit S9” value ([2]; 5 µM)?
A: inaktiv

Q: And the “AMESTA100 ohne S9” value ([2]; 5 µM)?
A: inaktiv

Q: What about the “AMESTA100 mit S9” value ([2]; 10 µM) of the same compound?
A: inaktiv

Q: And the “AMESTA100 ohne S9” value ([2]; 10 µM)?
A: inaktiv
